# Measurements taken from ChEMBL document CHEMBL4800727 (2021).
# pKi: −log10 of the molar value. The source made the active and inactive calls. No cut-off for these calls is given here.
# Columns and labels:
# [1] = molecular target: 5-hydroxytryptamine receptor 2C (Homo sapiens, UniProt P28335); assay: GPCRScan assay: inhibition of 5-HT2C; design: radioligand conc. used [nm] 1.0 – 2.5, parental cells HEK T
# [2] = molecular target: cAMP and cAMP-inhibited cGMP 3',5'-cyclic phosphodiesterase 10A (Mus musculus, UniProt Q8CA95); assay: SPA with mouse PDE10A
# [3] = molecular target: Cyclin-dependent kinase 2/cyclin A (Homo sapiens) (UniProt P24941+P20248+P78396); assay: cyclin-dependent kinase 2 / clyclinA Millipore kinase panel; format: protein-complex assay; details: Compound concentration 10.0 uM
# [4] = molecular target: Ephrin type-A receptor 8 (Homo sapiens) (UniProt P29322); assay: EPH receptor A8 Millipore kinase panel; details: Compound concentration 10.0 uM
# [5] = molecular target: Fibroblast growth factor receptor 4 (Homo sapiens) (UniProt P22455); assay: fibroblast growth factor receptor 4 Millipore kinase panel; details: Compound concentration 10.0 uM
# [6] = molecular target: Tyrosine-protein kinase HCK (Homo sapiens) (UniProt P08631); assay: hemopoietic cell kinase (activated) Millipore kinase panel; details: Compound concentration 10.0 uM
# [7] = molecular target: Insulin receptor-related protein (Homo sapiens) (UniProt P14616); assay: insulin receptor-related receptor Millipore kinase panel; details: Compound concentration 10.0 uM
# [8] = molecular target: Tyrosine-protein kinase Lck (Homo sapiens) (UniProt P06239); assay: lymphocyte-specific protein tyrosine kinase Millipore kinase panel; details: Compound concentration 10.0 uM
# [9] = molecular target: mTOR/FKBP12A/FKBP12B (Homo sapiens) (UniProt P62942+P68106+P42345); assay: mechanistic target of rapamycin / FKBP12 Millipore kinase panel; format: protein-complex assay; details: Compound concentration 10.0 uM
# [10] = molecular target: Serine/threonine-protein kinase mTOR (Homo sapiens) (UniProt P42345); assay: mechanistic target of rapamycin Millipore kinase panel; details: Compound concentration 10.0 uM
# [11] = molecular target: MAP kinase-activated protein kinase 2 (Homo sapiens) (UniProt P49137); assay: mitogen-activated protein kinase-activated protein kinase 2 Millipore kinase panel; details: Compound concentration 10.0 uM
# [12] = molecular target: Mitogen-activated protein kinase 11 (Homo sapiens) (UniProt Q15759); assay: mitogen-activated protein kinase 11 Millipore kinase panel; details: Compound concentration 10.0 uM
# [13] = molecular target: Mitogen-activated protein kinase 13 (Homo sapiens) (UniProt O15264); assay: mitogen-activated protein kinase 13 Millipore kinase panel; details: Compound concentration 10.0 uM
# [14] = molecular target: Mitogen-activated protein kinase kinase kinase 9 (Homo sapiens) (UniProt P80192); assay: mitogen-activated protein kinase kinase kinase 9 Millipore kinase panel; details: Compound concentration 10.0 uM
# [15] = molecular target: Muscle, skeletal receptor tyrosine-protein kinase (Homo sapiens) (UniProt O15146); assay: muscle, skeletal, receptor tyrosine kinase Millipore kinase panel; details: Compound concentration 10.0 uM
# [16] = molecular target: NUAK family SNF1-like kinase 1 (Homo sapiens) (UniProt O60285); assay: NUAK family, SNF1-like kinase, 1 Millipore kinase panel; details: Compound concentration 10.0 uM
# [17] = molecular target: Serine/threonine-protein kinase PAK 5 (Homo sapiens) (UniProt Q9P286); assay: p21 protein -activated kinase 5 Millipore kinase panel; details: Compound concentration 10.0 uM
# [18] = molecular target: PAS domain-containing serine/threonine-protein kinase (Homo sapiens) (UniProt Q96RG2); assay: PAS domain containing serine/threonine kinase Millipore kinase panel; details: Compound concentration 10.0 uM
# [19] = molecular target: Phosphatidylinositol 4,5-bisphosphate 3-kinase catalytic subunit beta isoform (Homo sapiens) (UniProt P42338); assay: phosphoinositide-3-kinase, catalytic, beta polypeptide Millipore kinase panel; details: Compound concentration 10.0 uM
# [20] = molecular target: PI3-kinase p110-delta/p85-alpha (Homo sapiens) (UniProt P27986+O00329); assay: phosphoinositide-3-kinase, catalytic, delta polypeptide Millipore kinase panel; format: protein-complex assay; details: Compound concentration 10.0 uM
# [21] = molecular target: Serine/threonine-protein kinase pim-1 (Homo sapiens) (UniProt P11309); assay: pim-1 oncogene Millipore kinase panel; details: Compound concentration 10.0 uM
# [22] = molecular target: Protein kinase C alpha type (Homo sapiens) (UniProt P17252); assay: protein kinase C, alpha Millipore kinase panel; details: Compound concentration 10.0 uM
# [23] = molecular target: cGMP-dependent protein kinase 2 (Homo sapiens) (UniProt Q13237); assay: protein kinase, cGMP-dependent, type II Millipore kinase panel; details: Compound concentration 10.0 uM
# [24] = molecular target: Ribosomal protein S6 kinase alpha-1 (Homo sapiens) (UniProt Q15418); assay: ribosomal protein S6 kinase, 90kDa, polypeptide 1 Millipore kinase panel; details: Compound concentration 10.0 uM
# [25] = molecular target: Serine/threonine-protein kinase 33 (Homo sapiens) (UniProt Q9BYT3); assay: serine/threonine kinase 33 Millipore kinase panel; details: Compound concentration 10.0 uM
# [26] = molecular target: Tyrosine-protein kinase Yes (Homo sapiens) (UniProt P07947); assay: v-yes-1 Yamaguchi sarcoma viral oncogene homolog 1 Millipore kinase panel; details: Compound concentration 10.0 uM
# [27] = molecular target: Serine/threonine-protein kinase WNK3 (Homo sapiens) (UniProt Q9BYP7); assay: WNK lysine deficient protein kinase 3 Millipore kinase panel; details: Compound concentration 10.0 uM
# [28] = molecular target: High affinity cGMP-specific 3',5'-cyclic phosphodiesterase 9A (Homo sapiens, UniProt O76083); assay: hPDE9A PDE scan
# [29] = molecular target: D(2) dopamine receptor (Homo sapiens) (UniProt P14416); assay: hD2S Cerep panel; details: Compound concentration 10.0 uM
# [30] = molecular target: Galanin receptor type 2 (Homo sapiens) (UniProt O43603); assay: hGAL2 Cerep panel; details: Compound concentration 10.0 uM
# [31] = molecular target: Vasoactive intestinal polypeptide receptor 1 (Homo sapiens) (UniProt P32241); assay: hVPAC1 Cerep panel; details: Compound concentration 10.0 uM
# [32] = molecular target: Glutamate receptor ionotropic, AMPA (Rattus norvegicus) (UniProt P19491+P19492+P19493+P19490); assay: rGlutamate (ionotropic) AMPA Cerep panel; format: protein-complex assay; details: Compound concentration 10.0 uM
# Rattus norvegicus [33] = species on record: Rattus norvegicus; assay: rGlutamate (ionotropic) MDL Cerep panel; details: Compound concentration 10.0 uM
# [34] = molecular target: T1, Muscarinic acetylcholine receptor M1 (Homo sapiens) (UniProt P11229); assay: hM1 Cerep panel; details: Compound concentration 10.0 uM
# T1 sequence (whole entry): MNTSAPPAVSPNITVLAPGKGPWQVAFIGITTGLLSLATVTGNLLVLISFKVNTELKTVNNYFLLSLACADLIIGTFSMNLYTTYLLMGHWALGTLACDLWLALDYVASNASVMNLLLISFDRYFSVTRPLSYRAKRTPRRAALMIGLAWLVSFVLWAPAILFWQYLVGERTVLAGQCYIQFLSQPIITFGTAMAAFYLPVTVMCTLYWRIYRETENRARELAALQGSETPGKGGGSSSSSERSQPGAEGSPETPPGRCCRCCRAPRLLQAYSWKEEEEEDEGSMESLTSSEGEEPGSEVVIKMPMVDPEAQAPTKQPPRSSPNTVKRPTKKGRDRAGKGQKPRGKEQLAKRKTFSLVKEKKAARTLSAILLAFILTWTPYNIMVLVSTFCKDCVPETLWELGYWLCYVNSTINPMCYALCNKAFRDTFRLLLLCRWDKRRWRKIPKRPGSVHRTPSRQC
# [35] = molecular target: Substance-P receptor (Homo sapiens) (UniProt P25103); assay: hNK1 Cerep panel; details: Compound concentration 10.0 uM
# [36] = molecular target: 5-hydroxytryptamine receptor 5A (Homo sapiens) (UniProt P47898); assay: h5HT5A Cerep panel; details: Compound concentration 10.0 uM
# [37] = molecular target: Sodium-dependent noradrenaline transporter (Homo sapiens) (UniProt P23975); assay: hNET Cerep panel; details: Compound concentration 10.0 uM
# [38] = molecular target: Androgen receptor (Homo sapiens) (UniProt P10275); assay: hAR Cerep panel; details: Compound concentration 10.0 uM
# [39] = molecular target: Histamine H2 receptor (Homo sapiens) (UniProt P25021); assay: hH2 Cerep panel; details: Compound concentration 10.0 uM
# [40] = molecular target: Prostaglandin G/H synthase 2 (Homo sapiens) (UniProt P35354); assay: hCOX2 Cerep panel; details: Compound concentration 10.0 uM
# [41] = molecular target: Muscarinic acetylcholine receptor M5 (Homo sapiens) (UniProt P08912); details: Compound concentration 10.0 uM
# Rattus norvegicus [42] = species on record: Rattus norvegicus; details: Compound concentration 10.0 uM
# Chain of D(2) dopamine receptor (Homo sapiens) (P14416 whole entry): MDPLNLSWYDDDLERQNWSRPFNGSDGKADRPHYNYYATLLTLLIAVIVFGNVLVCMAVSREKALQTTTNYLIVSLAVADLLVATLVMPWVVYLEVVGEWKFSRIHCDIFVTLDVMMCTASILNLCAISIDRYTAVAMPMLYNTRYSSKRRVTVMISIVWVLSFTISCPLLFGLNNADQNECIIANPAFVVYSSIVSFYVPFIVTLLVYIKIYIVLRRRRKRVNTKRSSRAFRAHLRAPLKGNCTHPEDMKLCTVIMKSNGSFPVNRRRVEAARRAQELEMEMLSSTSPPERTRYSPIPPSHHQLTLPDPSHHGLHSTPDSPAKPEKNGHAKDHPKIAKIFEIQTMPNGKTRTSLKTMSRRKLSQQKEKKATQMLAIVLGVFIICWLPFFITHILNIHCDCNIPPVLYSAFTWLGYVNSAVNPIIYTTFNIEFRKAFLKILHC
# Chain of Ephrin type-A receptor 8 (Homo sapiens) (P29322 whole entry): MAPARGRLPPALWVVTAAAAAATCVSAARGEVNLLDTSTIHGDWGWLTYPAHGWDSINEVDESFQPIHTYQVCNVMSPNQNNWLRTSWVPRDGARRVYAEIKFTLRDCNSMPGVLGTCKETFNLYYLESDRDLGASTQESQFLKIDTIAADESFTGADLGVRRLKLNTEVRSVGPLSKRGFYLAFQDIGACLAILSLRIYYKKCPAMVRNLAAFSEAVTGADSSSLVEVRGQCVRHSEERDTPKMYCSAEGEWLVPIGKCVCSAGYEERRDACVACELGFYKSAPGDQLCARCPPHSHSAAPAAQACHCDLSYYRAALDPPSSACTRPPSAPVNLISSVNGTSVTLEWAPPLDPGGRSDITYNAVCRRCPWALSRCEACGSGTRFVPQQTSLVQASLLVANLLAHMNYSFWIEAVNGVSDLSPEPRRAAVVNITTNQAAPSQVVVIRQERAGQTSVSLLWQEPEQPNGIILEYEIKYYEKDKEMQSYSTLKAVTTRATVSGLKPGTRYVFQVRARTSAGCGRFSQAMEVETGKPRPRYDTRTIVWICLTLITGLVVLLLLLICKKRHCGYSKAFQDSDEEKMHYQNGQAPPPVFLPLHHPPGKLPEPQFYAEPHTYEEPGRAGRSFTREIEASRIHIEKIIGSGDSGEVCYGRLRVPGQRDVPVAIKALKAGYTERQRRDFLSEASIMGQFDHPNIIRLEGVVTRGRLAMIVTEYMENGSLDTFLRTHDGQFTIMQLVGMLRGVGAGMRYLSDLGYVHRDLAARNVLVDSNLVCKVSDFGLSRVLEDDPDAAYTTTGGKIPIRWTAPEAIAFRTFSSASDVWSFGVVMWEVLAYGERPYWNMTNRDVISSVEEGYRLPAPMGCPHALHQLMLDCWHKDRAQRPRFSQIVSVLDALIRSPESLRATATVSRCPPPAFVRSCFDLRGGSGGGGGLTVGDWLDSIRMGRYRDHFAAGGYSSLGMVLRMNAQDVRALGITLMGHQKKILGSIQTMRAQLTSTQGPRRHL
# Chain of Ribosomal protein S6 kinase alpha-1 (Homo sapiens) (Q15418 whole entry): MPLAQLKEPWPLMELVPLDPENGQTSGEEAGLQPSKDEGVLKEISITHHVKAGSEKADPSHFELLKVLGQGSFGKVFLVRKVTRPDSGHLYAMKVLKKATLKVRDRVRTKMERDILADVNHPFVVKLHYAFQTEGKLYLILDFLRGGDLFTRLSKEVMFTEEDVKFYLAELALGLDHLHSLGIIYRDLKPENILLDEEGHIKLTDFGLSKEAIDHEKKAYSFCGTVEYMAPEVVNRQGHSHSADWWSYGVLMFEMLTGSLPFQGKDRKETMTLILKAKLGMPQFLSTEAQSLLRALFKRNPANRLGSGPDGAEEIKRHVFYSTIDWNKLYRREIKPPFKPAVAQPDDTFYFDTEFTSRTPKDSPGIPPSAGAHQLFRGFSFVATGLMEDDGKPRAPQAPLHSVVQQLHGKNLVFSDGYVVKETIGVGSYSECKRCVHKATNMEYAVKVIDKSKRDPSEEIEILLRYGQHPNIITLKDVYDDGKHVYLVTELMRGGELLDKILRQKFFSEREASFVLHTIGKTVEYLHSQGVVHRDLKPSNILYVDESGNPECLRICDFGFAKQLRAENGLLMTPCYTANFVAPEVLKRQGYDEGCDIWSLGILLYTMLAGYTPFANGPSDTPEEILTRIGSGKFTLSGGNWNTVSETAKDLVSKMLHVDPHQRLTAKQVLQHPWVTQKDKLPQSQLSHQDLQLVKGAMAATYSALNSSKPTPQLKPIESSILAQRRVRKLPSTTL
# Chain of Tyrosine-protein kinase Lck (Homo sapiens) (P06239 2-509 limits assumed): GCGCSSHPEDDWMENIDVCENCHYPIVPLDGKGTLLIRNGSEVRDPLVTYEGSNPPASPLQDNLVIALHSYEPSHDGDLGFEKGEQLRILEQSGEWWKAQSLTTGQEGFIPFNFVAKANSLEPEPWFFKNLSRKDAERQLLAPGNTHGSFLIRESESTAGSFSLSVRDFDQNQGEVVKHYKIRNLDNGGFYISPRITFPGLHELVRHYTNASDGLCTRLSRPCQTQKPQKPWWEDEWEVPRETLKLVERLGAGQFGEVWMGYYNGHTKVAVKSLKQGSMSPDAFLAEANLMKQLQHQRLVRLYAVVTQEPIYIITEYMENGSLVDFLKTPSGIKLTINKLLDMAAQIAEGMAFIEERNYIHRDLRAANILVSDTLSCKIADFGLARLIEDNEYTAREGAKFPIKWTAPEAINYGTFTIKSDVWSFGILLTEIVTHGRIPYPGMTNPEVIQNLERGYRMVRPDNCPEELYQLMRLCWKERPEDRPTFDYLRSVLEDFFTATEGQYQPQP
# Chain of Mitogen-activated protein kinase 13 (Homo sapiens) (O15264 whole entry): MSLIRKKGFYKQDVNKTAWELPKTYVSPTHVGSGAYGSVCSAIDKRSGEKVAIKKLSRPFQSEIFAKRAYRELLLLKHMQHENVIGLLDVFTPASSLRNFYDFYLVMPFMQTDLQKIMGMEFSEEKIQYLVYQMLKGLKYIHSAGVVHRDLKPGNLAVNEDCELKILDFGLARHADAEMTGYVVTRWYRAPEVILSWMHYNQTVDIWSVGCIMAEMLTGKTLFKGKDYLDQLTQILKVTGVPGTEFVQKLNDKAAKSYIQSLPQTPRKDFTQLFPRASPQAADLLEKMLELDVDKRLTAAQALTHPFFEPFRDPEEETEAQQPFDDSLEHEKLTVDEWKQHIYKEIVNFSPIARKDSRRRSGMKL
# Chain of Serine/threonine-protein kinase pim-1 (Homo sapiens) (P11309 whole entry, looked up): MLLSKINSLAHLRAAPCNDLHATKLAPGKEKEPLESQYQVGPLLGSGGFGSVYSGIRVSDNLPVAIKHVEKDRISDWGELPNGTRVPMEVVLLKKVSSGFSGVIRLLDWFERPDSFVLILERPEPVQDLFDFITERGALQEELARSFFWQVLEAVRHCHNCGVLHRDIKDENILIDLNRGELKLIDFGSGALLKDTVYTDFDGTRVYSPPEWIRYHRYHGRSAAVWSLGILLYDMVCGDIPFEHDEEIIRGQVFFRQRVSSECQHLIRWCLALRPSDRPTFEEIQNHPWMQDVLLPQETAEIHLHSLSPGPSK
# Chain of Tyrosine-protein kinase HCK (Homo sapiens) (P08631 2-526 limits assumed): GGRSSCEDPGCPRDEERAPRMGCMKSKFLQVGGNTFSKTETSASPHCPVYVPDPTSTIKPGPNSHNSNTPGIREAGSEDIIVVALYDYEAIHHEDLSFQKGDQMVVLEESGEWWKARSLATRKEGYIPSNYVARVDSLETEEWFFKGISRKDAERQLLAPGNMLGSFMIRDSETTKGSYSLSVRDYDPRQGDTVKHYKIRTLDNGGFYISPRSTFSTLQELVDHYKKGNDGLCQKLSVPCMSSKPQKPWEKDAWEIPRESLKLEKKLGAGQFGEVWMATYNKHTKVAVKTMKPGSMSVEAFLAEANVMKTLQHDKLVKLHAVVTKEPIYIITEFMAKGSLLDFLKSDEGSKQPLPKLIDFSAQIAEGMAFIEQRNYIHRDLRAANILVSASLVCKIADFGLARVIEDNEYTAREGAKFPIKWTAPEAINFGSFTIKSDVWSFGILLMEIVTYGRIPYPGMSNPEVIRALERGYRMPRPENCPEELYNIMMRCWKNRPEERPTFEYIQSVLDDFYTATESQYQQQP
# Chain of Mitogen-activated protein kinase 11 (Homo sapiens) (Q15759 whole entry): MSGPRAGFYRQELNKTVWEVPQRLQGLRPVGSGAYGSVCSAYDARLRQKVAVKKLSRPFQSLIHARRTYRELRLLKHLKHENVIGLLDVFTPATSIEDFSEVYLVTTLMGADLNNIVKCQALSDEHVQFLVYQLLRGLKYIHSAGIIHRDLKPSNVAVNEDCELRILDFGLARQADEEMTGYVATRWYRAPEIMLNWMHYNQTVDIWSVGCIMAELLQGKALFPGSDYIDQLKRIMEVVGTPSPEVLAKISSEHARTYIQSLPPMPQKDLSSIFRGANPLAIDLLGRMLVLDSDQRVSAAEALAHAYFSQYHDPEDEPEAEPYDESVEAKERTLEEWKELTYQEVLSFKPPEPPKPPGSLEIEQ
# Chain of Tyrosine-protein kinase Yes (Homo sapiens) (P07947 2-543 limits assumed): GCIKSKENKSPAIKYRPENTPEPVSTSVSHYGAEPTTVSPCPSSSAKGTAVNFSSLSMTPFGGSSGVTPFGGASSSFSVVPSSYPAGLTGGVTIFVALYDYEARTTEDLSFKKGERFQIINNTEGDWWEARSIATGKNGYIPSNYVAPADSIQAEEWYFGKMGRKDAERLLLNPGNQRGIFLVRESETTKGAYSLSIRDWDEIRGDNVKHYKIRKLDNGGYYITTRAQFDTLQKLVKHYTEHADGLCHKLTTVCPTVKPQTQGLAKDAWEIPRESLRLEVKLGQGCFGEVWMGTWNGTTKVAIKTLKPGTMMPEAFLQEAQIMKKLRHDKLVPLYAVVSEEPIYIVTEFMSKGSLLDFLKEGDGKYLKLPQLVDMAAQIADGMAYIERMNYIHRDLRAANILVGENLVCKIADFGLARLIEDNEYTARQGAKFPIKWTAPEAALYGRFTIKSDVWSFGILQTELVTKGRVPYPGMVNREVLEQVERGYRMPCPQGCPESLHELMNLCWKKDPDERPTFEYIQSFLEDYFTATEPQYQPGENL
smiles,measurement,setting,value
COCCc1ccc(-c2c(C)nc3c(N4CCOCC4)ccnn23)cn1 [JNJ-42396302],pKi,[1],5.66
same,Ki,[2],0.011 µM (active)
same,inhibition,[3],2%
same,inhibition,[4],0%
same,inhibition,[5],-7%
same,inhibition,[6],-3%
same,inhibition,[7],10%
same,inhibition,[8],13%
same,inhibition,[9],9%
same,inhibition,[10],1%
same,inhibition,[11],-5%
same,inhibition,[12],-2%
same,inhibition,[13],4%
same,inhibition,[14],5%
same,inhibition,[15],-6%
same,inhibition,[16],7%
same,inhibition,[17],7%
same,inhibition,[18],5%
same,inhibition,[19],1%
same,inhibition,[20],1%
same,inhibition,[21],10%
same,inhibition,[22],15%
same,inhibition,[23],1%
same,inhibition,[24],9%
same,inhibition,[25],-1%
same,inhibition,[26],0%
same,inhibition,[27],0%
same,pKi,[28],4.48
same,effect,[29],1.7%
same,effect,[30],6.7%
same,effect,[31],2.05%
same,effect,[32],7.7%
same,effect,Rattus norvegicus [33],-6.2%
same,effect,[34],2.2%
same,effect,[35],3.05%
same,effect,[36],5.7%
same,effect,[37],6.7%
same,effect,[38],-13.8%
same,effect,[39],18.1%
same,effect,[40],13.4%
same,inhibition,[41],-1.98%
same,inhibition,Rattus norvegicus [42],2.18%
